The subject of data set [1] is Puccinia recondita f. Sp. Tritici. Description: Fungicidal activity against Puccinia recondita f. sp. tritici / wheat / leaf disc preventative (brown rust). The format is in vivo. The settings on record: foliar, 200 ppm in the applied formulation, wheat leaf segments, preventative, compared to untreated control leaf disks, read-out: disease control. The procedure, abridged:
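Percent disease control relative to untreated check segments is scored once disease develops, 7 to 9 days after application. Wheat cv. Kanzler segments receive compound spray (200 ppm in formulation) one day before spore inoculation, then sit at 19° C. and 75% rh under 12 h light/12 h dark.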

For data set [2] the test system is unchanged. As to the kind of experiment: Fungicidal activity against Puccinia recondita f. sp. tritici / wheat / leaf disc curative (brown rust). The settings on record: foliar, 24 h, 200 ppm in the applied formulation, wheat leaf segments, curative (applied 1 day after inoculation), compared to untreated control leaf disks, read-out: disease control. The format is in vivo. The gist of the method:
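Curative leaf-segment test: compound diluted in water applied 1 day after spore inoculation of cv. Kanzler wheat segments on agar. Conditions 19° C, 75% RH, 12 h/12 h light cycle. Read-out: % disease control relative to untreated check, 6 to 8 days after application.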

The subject of the next data set is Phakopsora Pachyrhizi. Description: Fungicidal activity against Phakopsora pachyrhizi / soybean / leaf disc preventative (Asian soybean rust). In kind it is in vivo. The settings on record: foliar, 200 ppm in the applied formulation, soybean leaf disks, compared to untreated control leaf disks, read-out: disease control. The gist of the method:
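Scored 12 to 14 days post-application as percent control relative to untreated check discs, rust spores were sprayed under the disc one day after compound treatment. Incubation: 20°C, 75% rh, first 24–36 h in darkness, then 12 h daily light; discs kept on water agar.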

The subject of data set [3] is Glomerella lagenarium (Colletotrichum lagenarium). As to the kind of experiment: Fungicidal activity against Glomerella lagenarium (Colletotrichum lagenarium) liquid culture / cucumber / preventative (anthracnose). In kind it is cell-based. The settings on record: Colletotrichum orbiculare; 20 ppm in the applied formulation; liquid culture (PDB), growth inhibition measured photometrically after 3 to 4 days; compared to untreated control; read-out: disease control. The gist of the method: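 Percent activity against the untreated check was derived from photometric growth measurements made 2 to 7 days after conidia in potato dextrose broth were combined with compound at 20 ppm. Cultures were kept dark at 24 °C and 96% humidity.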

18 compounds from patent publication US11180462B2, “Microbiocidal oxadiazole derivatives” (SYNGENTA PARTICIPATIONS AG, priority 2015, dated 2021) can be followed below.

On to `CON(Cc1ccc(-c2noc(C(F)(F)F)n2)cc1)C(=O)NCC1CC1` [Compound 3.6, 3-(cyclopropylmethyl)-1-methoxy-1-[[4-[5-(trifluoromethyl)-1,2,4-oxadiazol-3-yl]phenyl]methyl]urea], for which the melting point (commonly the temperature of the solid-liquid transition) lay in the range of 77 to 81.4 °C. In addition, the pest or weed control at 200 ppm in data set [1] is ≥ 80%. For the same compound, in data set [2], the pest or weed control at 200 ppm is ≥ 80%. Further, the pest or weed control at 200 ppm in the data set with Phakopsora Pachyrhizi was ≥ 80%. Moreover, the inhibition of growth at 20 ppm in data set [3] is ≥ 80%.

`CCC(=O)N(O)Cc1ccc(-c2noc(C(F)(F)F)n2)cc1` [Compound 1.603, N-hydroxy-N-[[4-[5-(trifiuoromethyl)-1,2,4-oxadiazol-3-yl]phenyl]methyl]-propanamide] had a melting point of 141.2 to 143.5 °C. For the same compound, the pest or weed control at 200 ppm in data set [1] was ≥ 80%. The pest or weed control at 200 ppm in data set [2] was ≥ 80%. The pest or weed control at 200 ppm with Phakopsora Pachyrhizi is ≥ 80%. Moreover, the inhibition of growth at 20 ppm in data set [3] is ≥ 80%.

Turning to `CCONC(=O)N(Cc1ccc(-c2noc(C(F)(F)F)n2)cc1)OC` [Compound 3.18, 3-ethoxy-1-methoxy-1-[[4-[5-(trifluoromethyl)-1,2,4-oxadiazol-3-yl]phenyl]methyl]urea], the melting point lay in the range of 107 to 110 °C. Also, the pest or weed control at 200 ppm in data set [1] was ≥ 80%. The pest or weed control at 200 ppm in data set [2] is ≥ 80%. Moreover, in the data set on Phakopsora Pachyrhizi, the pest or weed control at 200 ppm is ≥ 80%. The inhibition of growth at 20 ppm in data set [3] is ≥ 80%.

In turn, `CON(Cc1ccc(-c2noc(C(F)(F)F)n2)cc1)C(=O)C(NC(=O)C1CC1)C(C)C` (stereo not drawn) [Compound 1.54, N-[1-(methoxy-[[4-[5-(trifluoromethyl)-1,2,4-oxadiazol-3-yl]phenyl]methyl]carbamoyl]-2-methyl-propyl]-cyclopropane-carboxamide] had a melting point of 104.4 to 109 °C. Also, the pest or weed control at 200 ppm in data set [1] was ≥ 80%. In addition, in data set [2], the pest or weed control at 200 ppm is ≥ 80%. For the same compound, the pest or weed control at 200 ppm with Phakopsora Pachyrhizi was ≥ 80%. Moreover, the inhibition of growth at 20 ppm in data set [3] is ≥ 80%.

As to `CON(Cc1ccc(-c2noc(C(F)(F)F)n2)cc1)C(=O)NC1(C#N)CC1` [Compound 3.47, 3-(1-cyanocyclopropyl)-1-methoxy-1-[[4-[5-(trifluoromethyl)-1,2,4-oxadiazol-3-yl]phenyl]methyl]urea], the melting point is 106 to 109 °C. For the same compound, the pest or weed control at 200 ppm in data set [1] was ≥ 80%. Moreover, the pest or weed control at 200 ppm in data set [2] was ≥ 80%. Further, the pest or weed control at 200 ppm with Phakopsora Pachyrhizi is ≥ 80%. Besides, the inhibition of growth at 20 ppm in data set [3] was ≥ 80%.

In the case of `COC(=O)N(O)Cc1ccc(-c2noc(C(F)(F)F)n2)cc1` [Compound 2.24, methyl N-hydroxy-N-[[4-[5-(trifluoromethyl)-1,2,4-oxadiazol-3-yl]phenyl]methyl]-carbamate], the melting point fell in the range of 73 to 75.1 °C. The pest or weed control at 200 ppm in data set [1] is ≥ 80%. The pest or weed control at 200 ppm in data set [2] was ≥ 80%. Further, the pest or weed control at 200 ppm in the data set with Phakopsora Pachyrhizi is ≥ 80%. Besides, the inhibition of growth at 20 ppm in data set [3] was ≥ 80%.

In turn, `CON(Cc1ccc(-c2noc(C(F)(F)F)n2)cc1)C(=O)NC1COC1` [Compound 3.55, 1-methoxy-3-(oxetan-3-yl)-1-[[4-[5-(trifluoromethyl)-1,2,4-oxadiazol-3-yl]phenyl]methyl]urea] registered a melting point of 97 to 100 °C. Besides, in data set [1], the pest or weed control at 200 ppm was ≥ 80%. For the same compound, the pest or weed control at 200 ppm in data set [2] was ≥ 80%. Moreover, in the data set with Phakopsora Pachyrhizi, the pest or weed control at 200 ppm was ≥ 80%. Besides, the inhibition of growth at 20 ppm in data set [3] is ≥ 80%.

For `CON(Cc1ccc(-c2noc(C(F)(F)F)n2)cc1)C(=O)NC1CC1` [Compound 3.14, 3-cyclopropyl-1-methoxy-1-[[4-[5-(trifluoromethyl)-1,2,4-oxadiazol-3-yl]phenyl]methyl]urea], the melting point fell in the range of 84 to 87 °C. In addition, the pest or weed control at 200 ppm in data set [1] was ≥ 80%. Also, the pest or weed control at 200 ppm in data set [2] is ≥ 80%. In the data set with Phakopsora Pachyrhizi, the pest or weed control at 200 ppm is ≥ 80%. The inhibition of growth at 20 ppm in data set [3] is ≥ 80%.

As to `CCC(=O)N(Cc1ccc(-c2noc(C(F)(F)F)n2)cc1)C1COC1` [Compound 1.604, N—(Oxetan-3-yl)-N-[[4-[5-(Trifluoromethyl)-1,2,4-Oxadiazol-3-yl]Phenyl]Methyl]Propanamide], the melting point was in the range of 88.8 to 93.5 °C. Further, in data set [1], the pest or weed control at 200 ppm was ≥ 80%. For the same compound, in data set [2], the pest or weed control at 200 ppm is ≥ 80%. Also, the pest or weed control at 200 ppm with Phakopsora Pachyrhizi is ≥ 80%. The inhibition of growth at 20 ppm in data set [3] was ≥ 80%.

For `CCC(=O)N(C)C(C#N)c1ccc(-c2noc(C(F)(F)F)n2)cc1` (stereo not drawn) [Compound 1.611, N-[cyano-[4-[5-(trifluoromethyl)-1,2,4-oxadiazol-3-yl]phenyl]methyl]-N-methyl-propanamide], the melting point was in the range of 75 to 76 °C. For the same compound, in data set [1], the pest or weed control at 200 ppm is ≥ 80%. In addition, the pest or weed control at 200 ppm in data set [2] was ≥ 80%. For the same compound, the pest or weed control at 200 ppm in the data set with Phakopsora Pachyrhizi is ≥ 80%. For the same compound, the inhibition of growth at 20 ppm in data set [3] is ≥ 80%.

In turn, `CON(C)C(=O)N(O)Cc1ccc(-c2noc(C(F)(F)F)n2)cc1` [Compound 3.29, 1-hydroxy-3-methoxy-3-methyl-1-[[4-[5-(trifluoromethyl)-1,2,4-oxadiazol-3-yl]phenyl]methyl]urea] showed a melting point of 96.3 to 100.5 °C. Moreover, the pest or weed control at 200 ppm in data set [1] is ≥ 80%. Further, the pest or weed control at 200 ppm in data set [2] is ≥ 80%. Further, the pest or weed control at 200 ppm in the data set on Phakopsora Pachyrhizi was ≥ 80%. In data set [3], the inhibition of growth at 20 ppm is ≥ 80%.

Compound `COCC(=O)N(Cc1ccc(-c2noc(C(F)(F)F)n2)cc1)CC(F)(F)F` [Compound 1.583, 2-methoxy-N-(2,2,2-trifluoroethyl)-N-[[4-[5-(trifluoromethyl)-1,2,4-oxadiazol-3-yl]phenyl]methyl]-acetamide] yielded a melting point of 92.6 to 94.3 °C. Moreover, in data set [1], the pest or weed control at 200 ppm was ≥ 80%. Besides, the pest or weed control at 200 ppm in data set [2] is ≥ 80%. Also, the pest or weed control at 200 ppm in the data set with Phakopsora Pachyrhizi is ≥ 80%. In data set [3], the inhibition of growth at 20 ppm is ≥ 80%.

For `CON(Cc1ccc(-c2noc(C(F)(F)F)n2)c(F)c1)C(=O)c1ccccc1Cl` [Compound 1.581, 2-chloro-N-[[3-fluoro-4-[5-(trifluoromethyl)-1,2,4-oxadiazol-3-yl]phenyl]methyl]-N-methoxy-benzamide], the melting point was 89 to 95 °C. For the same compound, in data set [1], the pest or weed control at 200 ppm is ≥ 80%. Further, the pest or weed control at 200 ppm in the data set on Phakopsora Pachyrhizi was ≥ 80%. Also, the inhibition of growth at 20 ppm in data set [3] is ≥ 80%.

Compound `CON(C)C(=O)N(C)C(C#N)c1ccc(-c2noc(C(F)(F)F)n2)cc1` (stereo not drawn) [Compound 3.31, 1-[cyano-[4-[5-(trifluoromethyl)-1,2,4-oxadiazol-3-yl]phenyl]methyl]-3-methoxy-1,3-dimethyl-urea] returned a melting point of 106 to 107 °C. The pest or weed control at 200 ppm in data set [1] was ≥ 80%. For the same compound, the pest or weed control at 200 ppm in data set [2] is ≥ 80%. Also, the pest or weed control at 200 ppm in the data set with Phakopsora Pachyrhizi is ≥ 80%. In data set [3], the inhibition of growth at 20 ppm is ≥ 80%.

`CON(Cc1ccc(-c2noc(C(F)(F)F)n2)cc1)C(=O)/C=C/c1ccccc1` [Compound 1.5, (E)-N-methoxy-3-phenyl-N-[[4-[5-(trifluoromethyl)-1,2,4-oxadiazol-3-yl]phenyl]methyl]-prop-2-enamide] gave a melting point of 94 to 99 °C. Further, the pest or weed control at 200 ppm in the data set on Phakopsora Pachyrhizi is ≥ 80%. Moreover, the inhibition of growth at 20 ppm in data set [3] is ≥ 80%.

Compound `CON(Cc1ccc(-c2noc(C(F)(F)F)n2)cc1)C(=O)NCC1(O)CC1` [Compound 3.54, 3-[(1-hydroxycyclopropyl)-methyl]-1-methoxy-1-[[4-[5-(trifluoromethyl)-1,2,4-oxadiazol-3-yl]phenyl]methyl]urea] returned a melting point of 107 to 110 °C. Also, the pest or weed control at 200 ppm in data set [1] is ≥ 80%. Moreover, in data set [2], the pest or weed control at 200 ppm was ≥ 80%. The inhibition of growth at 20 ppm in data set [3] is ≥ 80%.

Take `CCON(Cc1ccc(-c2noc(C(F)(F)F)n2)cc1)C(=O)OC` [Compound 2.5, methyl N-ethoxy-N-[[4-[5-(trifluoromethyl)-1,2,4-oxadiazol-3-yl]phenyl]methyl]-carbamate]: the melting point fell in the range of 50.6 to 53 °C. In addition, the pest or weed control at 200 ppm in data set [2] was ≥ 80%. Further, in the data set with Phakopsora Pachyrhizi, the pest or weed control at 200 ppm is ≥ 80%. Moreover, the inhibition of growth at 20 ppm in data set [3] is ≥ 80%.

`CON(Cc1ccc(-c2noc(C(F)(F)F)n2)cc1)C(=O)CNC(=O)C1CC1` [Compound 1.790, N-[2-[methoxy-[[4-[5-(trifluoro-methyl)-1,2,4-oxadiazol-3-yl]phenyl]methyl]-amino]-2-oxo-ethyl]-cyclopropane-carboxamide] came in with a melting point of 135.9 to 138.5 °C. In data set [1], the pest or weed control at 200 ppm was ≥ 80%. The pest or weed control at 200 ppm in data set [2] was ≥ 80%. Moreover, the inhibition of growth at 20 ppm in data set [3] is ≥ 80%.
